For this assay, the system named is water-immersion stress loaded rat (fatigue rat) model. Description: weight-loaded forced swimming test in ME/CFS animal model (water-immersion stress loaded fatigue rat). In kind it is in vivo. The note with it: Slc:SD fatigue rat, compared to fatigue control group, hydrochloride. An excerpt: A […] encephalomyelitis/chronic fatigue syndrome (ME/CFS)-improving effect by the administration of the compound (amiselimod hydrochloride) relating to the present invention was verified as follows according to the method of Tanaka et al. (Establishment and assessment of a rat model fatigue. Neuroscience letters 2003, 352: 159-162) using a water-immersion stress loaded rat (fatigue rat) model. The animal used was 9-week-old Slc:SD rat. The rats were bred (water-immersion breeding) for 6 days in a plastic cage (W: 445×D: 276×H: 204 mm) containing tap water (water temperature: 23±1° C.) to a height of 1.5 cm, and a weight-loaded forced swimming test was conducted. on the final day. In the weight-loaded forced swimming test, a rat with a weight equivalent to 8% of its body weight attached to its tail was placed in a circular water tank (diameter: 18 cm, height: 70 cm, water depth: 40 cm, water temperature: 23±1° C.), and the time from the start of swimming until the rat's nose sinks from the water surface for 20 seconds was measured. The weight-loaded forced swimming test was conducted blindly. Amiselimod hydrochloride (0.1, 0.3 and 1 mg/kg administration) was orally administered once a day for 6 days from the start date of the water-immersion breeding. As control groups, a normal control group for normal breeding and a fatigue control group for water-immersion breeding were set, and the vehicle (0.5% HPMC) was administered to both groups. The number of cases was 10 in each group.

The structures appear in SMILES notation. Entries after “also recorded” stand apart in the source; their conditions may differ.

For the compound `CCCCCCCOc1ccc(CCC(N)(CO)CO)cc1C(F)(F)F.Cl` [amiselimod hydrochloride, 2-amino-2-[2-(4-heptyloxy-3-trifluoromethylphenyl)ethyl]propane-1,3-diol hydrochloride], the “swimming time in weight-loaded forced swimming test” value by setting is: (0.1 mg/kg orally once a day for 6 days, 0.1 mg/kg) “significant difference was observed; also recorded: significantly prolonged the swimming time”; (0.3 mg/kg orally once a day for 6 days, 0.3 mg/kg) “significant difference was observed; also recorded: significantly prolonged the swimming time”; (1 mg/kg orally once a day for 6 days, 1 mg/kg) “significant difference was observed; also recorded: significantly prolonged the swimming time”.

For the origin of these results see patent US20230055568A1, “THERAPEUTIC AGENT FOR MYALGIC ENCEPHALOMYELITIS/CHRONIC FATIGUE SYNDROME” (MITSUBISHI TANABE PHARMA CORPORATION, priority 2020, published 2023).
